Source: BindingDB's records for doi:10.1007/s00044-013-0771-5 (n/a, 2013)

Molecular target: Prostaglandin G/H synthase 1/2 (Homo sapiens, UniProt P23219+P35354)
Experiment: Inhibition of COX (unknown origin)

Prostaglandin G/H synthase 1/2, sequence (P35354 whole entry): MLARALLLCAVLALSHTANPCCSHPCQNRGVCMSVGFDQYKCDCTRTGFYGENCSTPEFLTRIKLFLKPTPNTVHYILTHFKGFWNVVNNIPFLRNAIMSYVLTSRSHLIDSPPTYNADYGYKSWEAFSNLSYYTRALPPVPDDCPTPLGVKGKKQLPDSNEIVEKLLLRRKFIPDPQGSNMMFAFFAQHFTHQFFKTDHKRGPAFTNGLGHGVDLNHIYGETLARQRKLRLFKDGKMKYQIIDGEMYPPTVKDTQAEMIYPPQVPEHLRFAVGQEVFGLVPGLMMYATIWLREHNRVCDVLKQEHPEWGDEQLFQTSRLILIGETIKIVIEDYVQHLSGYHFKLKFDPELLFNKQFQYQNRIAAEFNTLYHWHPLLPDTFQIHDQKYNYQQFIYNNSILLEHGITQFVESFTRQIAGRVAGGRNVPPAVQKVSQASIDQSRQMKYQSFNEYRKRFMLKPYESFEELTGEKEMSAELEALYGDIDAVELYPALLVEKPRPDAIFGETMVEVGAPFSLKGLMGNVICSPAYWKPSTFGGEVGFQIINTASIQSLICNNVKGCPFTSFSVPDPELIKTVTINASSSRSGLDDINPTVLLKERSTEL
Prostaglandin G/H synthase 1/2, sequence (P23219 whole entry): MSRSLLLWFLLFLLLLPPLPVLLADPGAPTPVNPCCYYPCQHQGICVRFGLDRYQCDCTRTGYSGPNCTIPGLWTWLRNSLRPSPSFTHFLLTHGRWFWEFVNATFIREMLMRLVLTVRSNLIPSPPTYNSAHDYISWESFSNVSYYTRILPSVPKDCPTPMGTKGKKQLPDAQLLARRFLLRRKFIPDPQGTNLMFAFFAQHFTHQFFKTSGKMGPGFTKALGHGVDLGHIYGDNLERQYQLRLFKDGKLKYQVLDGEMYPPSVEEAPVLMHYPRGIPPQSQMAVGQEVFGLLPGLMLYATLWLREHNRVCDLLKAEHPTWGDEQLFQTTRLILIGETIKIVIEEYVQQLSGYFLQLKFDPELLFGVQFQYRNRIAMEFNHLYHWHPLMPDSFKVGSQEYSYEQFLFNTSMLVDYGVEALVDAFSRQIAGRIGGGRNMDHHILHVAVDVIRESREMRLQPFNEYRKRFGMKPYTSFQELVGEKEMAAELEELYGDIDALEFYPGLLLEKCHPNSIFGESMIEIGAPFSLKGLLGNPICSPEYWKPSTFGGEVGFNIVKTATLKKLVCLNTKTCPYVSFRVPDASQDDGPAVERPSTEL

| SMILES | IC50 |
| --- | --- |
| O=C(O)Cc1cc(O)ccc1Nc1c(Cl)cccc1Cl [CHEBI:59612] | 447 µM |
| O=C(O)Cc1cc(O)ccc1Nc1c(Cl)cc(O)cc1Cl [CHEBI:223401] | 912 µM |
